Like-named read-outs stand apart in the source and are kept apart here.
Columns and labels:
[1] = rotating rod test (sedative/muscle relaxant properties); type: in vivo, mice; conditions: Mus musculus, iv, i.v., read-out: Rotating rod test, ED550
Description: The sedative/muscle relaxant properties of the compounds of formula I in accordance with the invention can be determined, for example, in the rotating rod test. Mice weighing 19-21 g are used for this test. They have free access to feed and drinking water up to 1 h before the beginning of the test. They are brought into the test laboratory at least 30 min. before the test. In the rotating rod test the animals are placed on a horizontally arranged, smooth metal rod having a diameter of 3 cm, which is rotated at 2 revolutions per min. Initially, the animals are given the opportunity of familiarizing themselves with the test situation for 30 sec. Subsequently, those animals which succeed in remaining on the rod for at least 1 min. are selected. These animals are then given the test preparations intravenously in different dosages. At various points in time it is then determined whether the animals are able to remain on the rod for a minimum period (minimum period: 10 sec.; from 5 min. after administration: 1 min.). That dosage at which 50% of the animals are capable of remaining on the rod (ED50) is determined.

[2] = target: central benzodiazepine receptors; test: inhibition of the binding of tritiated flumazenil to the specific benzodiazepine receptors in the cortex of rats; conditions: read-out: Affinity to benzodiazepine receptors IC50
Description: The affinity of compounds of general formula I to the central benzodiazepine receptors has been established in vitro according to the methods described in Nature 294, 763-765 (1981) and J. Neurochemistry 37, 714-722 (1981). According to these methods, the inhibition of the binding of tritiated flumazenil to the specific benzodiazepine receptors in the cortex of rats by the respective test substances is determined. The IC50 ("50% inhibiting concentration") denotes that concentration of the respective test substance which brings about a 50 percent inhibition of the specific binding of tritiated flumazenil to the specific benzodiazepine receptors in the cortex of rats.

[3] = 15 s, 15 sec after administration
[4] = 0.5 min, 30 sec after administration
[5] = 1 min, 60 sec after administration
[6] = 2 min, 2 min after administration
[7] = 5 min, 5 min after administration
[8] = 0.25 h, 15 min after administration
[9] = 0.5 h, 30 min after administration
[10] = 1 h, 60 min after administration

Row | SMILES | ED50 [1, 3] [mg/kg] | ED50 [1, 4] [mg/kg] | ED50 [1, 5] [mg/kg] | ED50 [1, 6] [mg/kg] | ED50 [1, 7] [mg/kg] | ED50 [1, 8] [mg/kg] | ED50 [1, 9] [mg/kg] | ED50 [1, 10] [mg/kg] | IC50 [2] [nM]
1 | CCCN(CCC)Cc1cnc(-c2ncn3c2[C@@H]2CCN2C(=O)c2c(Cl)cccc2-3)o1 [A, (S)-8-chloro-1-(5-dipropylaminomethyl-oxazol-2-yl)-12,12a-dihydro-9H,11H-azeto[2,1-c]imidazo[1,5-a][1,4]benzodiazepin-9-one] | 0.3 | 0.4 | 0.6 | 1.1 | 1.8 | > 10 | > 10 | > 10 | 32
2 | CCCN(CCC)Cc1cnc(-c2ncn3c2CN(C)C(=O)c2cc(F)ccc2-3)o1 [B, 3-(5-dipropylaminomethyl-oxazol-2-yl)-8-fluoro-5-methyl-5,6-dihydro-4H-imidazo[1,5-a][1,4]benzodiazepin-6-one] | 0.3 | 0.5 | 0.7 | 1.6 | 2.6 | 4.9 | > 10 | > 10 | 59
3 | CCCN(CCC)Cc1cnc(-c2ncn3c2CN(C)C(=O)c2c-3ccc(F)c2Cl)o1 [C, 7-chloro-3-(5-dipropylaminomethyl-oxazol-2-yl)-8-fluoro-5-methyl-5,6-dihydro-4H-imidazo[1,5-a][1,4]benzodiazepin-6-one] | 0.3 | 0.3 | 0.5 | 0.7 | 1.6 | 2 | > 10 | ≥ 10 | 7
4 | CCCN(CCC)Cc1cnc(-c2ncn3c2[C@@H]2CCN2C(=O)c2sccc2-3)o1 [D, (S)-1-(5-dipropylaminomethyl-oxazol-2-yl)-11,11a-dihydro-8H,10H-azeto[1,2-a]imidazo[5,1-c]thieno[3,2-e][1,4]diazepin-8-one] | 0.1 | 0.2 | 0.4 | 0.5 | 1.8 | 3.6 | > 10 | > 10 | 7
5 | CCCN(CCC)Cc1csc(-c2ncn3c2[C@@H]2CCN2C(=O)c2c(Cl)cccc2-3)n1 [E, (S)-8-chloro-1-(4-dipropylaminomethyl-thiazol-2-yl)-12,12a-dihydro-9H,11H-azeto[2,1-c]imidazo[1,5-a][1,4]benzodiazepin-9-one] | 0.3 | 0.3 | 0.3 | 0.9 | 1 | 3.2 | ≥ 10 | > 10 | 11
6 | CCCN(CCC)Cc1cnc(-c2ncn3c2CN(C)C(=O)c2ccccc2-3)o1 [F, 3-(5-dipropylaminomethyl-oxazol-2-yl)-5-methyl-5,6-dihydro-4H-imidazo[1,5-a][1,4]benzodiazepin-6-one] | 1.7 | 3.9 | 4.7 | ≥ 10 | ≥ 10 | > 10 | > 10 | > 10 | 66
7 | CCCN(CCC)Cc1cnc(-c2ncn3c2CN(C)C(=O)c2c(Cl)cccc2-3)o1 [G, 7-chloro-3-(5-dipropylaminomethyl-oxazol-2-yl)-5-methyl-5,6-dihydro-4H-imidazo[1,5-a][1,4]benzodiazepin-6-one] | 1 | 1.2 | 1.8 | 2.1 | 3 | 3.4 | 5.6 | > 10 | 4
8 | CCCCN(CCCC)Cc1cnc(-c2ncn3c2CN(C)C(=O)c2cc(F)ccc2-3)o1 [H, 3-(5-dibutylaminomethyl-oxazol-2-yl)-8-fluoro-5-methyl-5,6-dihydro-4H-imidazo[1,5-a][1,4]benzodiazepin-6-one] | 1.1 | 1.1 | 1.2 | 2.1 | 3.4 | ≥ 10 | > 10 | > 10 | 35
9 | CCCN(CCC)Cc1cnc(-c2ncn3c2CN(C)C(=O)c2sccc2-3)o1 [I, 3-(5-dipropylaminomethyl-oxazol-2-yl)-5-methyl-5,6-dihydro-4H-imidazo[1,5-a]thieno[2,3-f][1,4]diazepin-6-one] | 1.8 | 1.7 | 3.4 | 3.9 | 8.7 | > 10 | > 10 | > 10 | 17
10 | CCCN(CCC)Cc1csc(-c2ncn3c2CN(C)C(=O)c2c(Cl)cccc2-3)n1 [J, 7-chloro-3-(4-dipropylaminomethyl-thiazol-2-yl)-5-methyl-5,6-dihydro-4H-imidazo[1,5-a][1,4]benzodiazepin-6-one] | 0.7 | 0.9 | 2.3 | ≥ 10 | ≥ 10 | > 10 | > 10 | > 10 | 5.2
11 | CCCN(CCC)Cc1csc(-c2ncn3c2[C@@H]2CCCN2C(=O)c2c(Cl)cccc2-3)n1 [K, (S)-8-chloro-1-(4-dipropylaminomethyl-thiazol-2-yl)-11,12,13,13a-tetrahydro-9H-imidazo[1,5-a]pyrrolo[2,1-c][1,4]benzodiazepin-9-one] | 1.8 | 1.8 | 5.6 | 3.7 | 5.6 | ≥ 10 | ≥ 10 | > 10 | 15
12 | CCCN(CCC)Cc1csc(-c2ncn3c2CN(C)C(=O)c2c-3ccc(F)c2Cl)n1 [L, 7-chloro-3-(4-dipropylaminomethyl-thiazol-2-yl)-8-fluoro-5-methyl-5,6-dihydro-4H-imidazo[1,5-a][1,4]benzodiazepin-6-one] | 1.1 | 1.1 | 1.1 | 2.8 | 4.7 | 5.7 | ≥ 10 | > 10 | 16
13 | CCCN(CCC)Cc1coc(-c2ncn3c2CN(C)C(=O)c2c(Cl)cccc2-3)n1 [M, 7-chloro-3-(4-dipropylaminomethyl-oxazol-2-yl)-5-methyl-5,6-dihydro-4H-imidazo[1,5-a][1,4]benzodiazepin-6-one] | 0.4 | 1 | 1.2 | 3 | 3.7 | 8.8 | ≥ 10 | > 10 | 15

Reference: US5885986A, “Oxazolyl- and thiazolylimidazo-benzo- and thienodiazepines and their use as medicaments” (Hoffmann-La Roche Inc., priority 1994, dated 1999)
